Test results taken from US20250082633A1, “COMPOUNDS AND METHODS FOR MODULATING SPLICING” (REMIX THERAPEUTICS INC., priority 2021, published 2025).
Read-outs that look alike come from different tables or passages of the source.

Assays:
Type in all cases: cell-based
K562 cells = assay: Cell Titer Glo 2.0 cell viability assay; settings: Homo sapiens, 500 cells/well, 72 hours
Experimental: Compounds described herein were screened for toxicity in K562 (human chronic myelogenous leukemia) and SH-SY5Y (human neuroblastoma) cells using a Cell Titer Glo 2.0 assay. • Promega CellTiter-Glo® 2.0 Cell Viability Assay (cat #G9241) • Corning 384-well TC-treated microplates (cat #3570) Cells were plated at 500 cells/well (K562 cells) in 45 μL of IMDM supplemented with 10% FBS in a 384-well opaque plate. Wells containing only medium were used as a blank control. Test compounds (e.g., compounds of Formula (I), (II), or (III)) were first serially diluted in DMSO then diluted 1:100 with IMDM+10% FBS. The final concentration of DMSO was 0.1% in each well. The cells were incubated for 72 hours at 37° C. and 5% CO2 before assaying with Cell Titer Glo 2.0 reagent.

HTT mRNA = assay: RT-qPCR splicing assay, HTT canonical (CJ) and alternative (AJ) junction mRNA; settings: Homo sapiens; for IC50: read-out: HTT CJ IC50
Experimental: (§1) Compounds described herein were used to modulate RNA transcript abundance in cells. The expression of a target mRNA was measured by detecting the formation of an exon-exon junction in the canonical transcript (CJ). A compound mediated exon-inclusion event was detected by observing an increase in formation of a new junction with an alternative exon (AJ). Real-time qPCR assays were used to detect these splicing switches and interrogate the potency of various compounds towards different target genes. A high-throughput real time quantitative PCR (RT-qPCR) assay was developed to measure these two isoforms of the mRNA (CJ and AJ) for exemplary genes, such as HTT, SMN2, and MYB, together with a control housekeeping gene, GAPDH or GUSB or PPIA, used for normalization. Briefly, the A673 or K562 cell line was treated with various compounds described herein (e.g., compounds of Formula (I)). After treatment, the levels of the HTT, MYB, or SMN2 mRNA targets were determined from each sample of cell lysate by cDNA synthesis followed by qPCR.
(§2) • Cells-to-CT 1-step kit: ThermoFisher A25602, Cells-to-CT lysis reagent: ThermoFisher 4391851C, TaqMan™ Fast Virus 1-Step Master Mix: ThermoFisher 4444436 • GAPDH: VIC-PL, ThermoFisher 4326317E (Assay: Hs99999905_m1)—used for K562/suspension cell lines • GUSB: VIC-PL, ThermoFisher 4326320E (Assay: Hs99999908_m1)—used for K562/suspension cell lines • PPIA: VIC-PL, ThermoFisher 4326316E (Assay: Hs99999904_m1)—used for A673/adherent cell lines
(§3) The A673 cell line was cultured in DMEM with 10% FBS. Cells were diluted with full growth media and plated in a 96-well plate (15,000 cells in 100 ul media per well). The plate was incubated at 37° C. with 5% CO2 for 24 hours to allow cells to adhere. An 11-point 3-fold serial dilution of the compounds was made in DMSO then diluted in media in an intermediate plate. Compounds were transferred from the intermediate plate to the cell plate with the top dose at a final concentration of 10 uM in the well. Final DMSO concentration was kept at or below 0.25%. The cell plate was returned to the incubator at 37° C. with 5% CO2 for an additional 24 hours.
(§4) The K562 cell line was cultured in IMDM with 10% FBS. For K562, cells were diluted with full growth media and plated in either a 96-well plate (50,000 cells in 50 uL media per well) or a 384-well plate (8,000-40,000 cells in 45 uL media per well). An 11-point 3-fold serial dilution of the compounds were made in DMSO then diluted in media in an intermediate plate. Compound was transferred from the intermediate plate to the cell plate with the top dose at a final concentration of 10 uM in the well. Final DMSO concentration was kept at or below 0.25%. Final volume was 100 uL for 96-well plate and 50 uL for 384-well plate. The cell plate was then placed in an incubator at 37° C. with 5% CO2 for 24 hours.
(§5) The cells were then gently washed with 50 uL-100 uL cold PBS before proceeding to addition of lysis buffer. 30 uL-50 μL of room temperature lysis buffer with DNAse I (and optionally RNAsin) was added to each well. Cells were shaken/mixed thoroughly at room temperature for 5-10 minutes for lysis to take place and then 3 uL-5 μL of room temperature stop solution was added and wells were shaken/mixed again. After 2-5 minutes, the cell lysate plate was transferred to ice for RT-qPCR reaction setup. The lysates could also be frozen at −80° C. for later use.
(§6) In some cases, a direct lysis buffer was used. An appropriate volume of 3× lysis buffer (10 mM Tris, 150 mM NaCl, 1.5%-2.5% Igepal and 0.1-1 U/uL RNAsin, pH 7.4) was directly added to either K562 or A673 cells in media and mixed by pipetting 3 times. The plates were then incubated at room temperature with shaking/rocking for 20-50 minutes to allow for lysis to take place. After this time, the cell lysate plate was transferred to ice to set up for the RT-qPCR reactions. The lysates could also be frozen at −80° C. for later use. […]

MYB mRNA = assay: RT-qPCR splicing assay, MYB canonical (CJ) and alternative (AJ) junction mRNA; settings: Homo sapiens; for IC50: read-out: MYB CJ IC50
Experimental: as §1, §2, §3, §4, §5, §6

SMN2 mRNA = assay: RT-qPCR splicing assay, gene panel, SMN2 canonical junction (CJ) mRNA; settings: Homo sapiens; decrease in CJ mRNA levels; larger panel of genes; Table 3; read-out: SMN2 CJ IC50
Experimental: as §1, §3, §4, §5
(§7) In some cases, a direct lysis buffer was used. An appropriate volume of 3× lysis buffer (10 mM Tris, 150 mM NaCl, 1.5%-2.5% Igepal and 0.1-1 U/uL RNAsin, pH 7.4) was directly added to either K562 or A673 cells in media and mixed by pipetting 3 times. The plates were then incubated at room temperature with shaking/rocking for 20-50 minutes to allow for lysis to take place. After this time, the cell lysate plate was transferred to ice to set up for the RT-qPCR reactions. The lysates could also be frozen at −80° C. for later use.
(§8) To set up 10 uL RT-qPCR reactions, cell lysates were transferred to 384-well qPCR plates containing the master mix according to the table below. The plates were sealed, gently vortexed, and spun down before the run. The volumes were adjusted accordingly in some instances where the reaction was carried in 20 μL. The table below summarizes the components of the RT-qPCR reactions:
(§9) The RT-qPCR reaction was performed using a QuantStudio (ThermoFisher) under the following fast cycling conditions. […]

Target C = assay: RT-qPCR splicing assay, gene panel, Target C canonical junction (CJ) mRNA; settings: Homo sapiens; decrease in CJ mRNA levels; larger panel of genes; Table 3; read-out: Target C CJ IC50
Experimental: as §1, §3, §4, §5, §7, §8, §9

[1] = decrease in CJ mRNA levels, larger panel of genes, Table 3
[2] = decrease in canonical junction mRNA, A673 or K562 cells, 24 hours treatment, Table 2

GI50 (K562 cells): 100 to 1000 nM
IC50 (HTT mRNA; [1]): < 100 nM
IC50 (HTT mRNA; [2]): < 100 nM
IC50 (MYB mRNA; [1]): 100 to 1000 nM
IC50 (MYB mRNA; [2]): 100 to 1000 nM
IC50 (SMN2 mRNA): 100 to 1000 nM
IC50 (Target C): 100 to 1000 nM
Compound: Cc1cn2nc(-c3cc(F)c4nn(C5CCNC6(CC6)C5)cc4c3)cc2c(C)n1 (stereo in doubt) [Compound 206, 2-[2-[(7R)-4-azaspiro[2.5]octan-7-yl]-7-fluoro-indazol-5-yl]-4,6-dimethyl-pyrazolo[1,5-a]pyrazine]
AC50 (HTT mRNA; increase in alternative junction mRNA, A673 or K562 cells, 24 hours treatment, Table 2, read-out: HTT AJ AC50): 100 to 1000 nM
AC50 (MYB mRNA; increase in alternative junction mRNA, A673 or K562 cells, 24 hours treatment, Table 2, read-out: MYB AJ AC50): 100 to 1000 nM
